Assays:
Format in all cases: physicochemical
[1] = Stability study: storage of the polymorph under ambient conditions, XRPD afterwards
Text: The HCl1 polymorph, which was a hard bulky material, was placed in a closed Amber bottle and stored under ambient conditions. Four months later, the bottle was opened, and the hard bulky material was now a free flowing powder. An XRPD was taken of this free flowing powder.

[2] = Thermogravimetric analysis (TGA); conditions: ramp 15° C./minute
Experimental: The sample pan was tared, and sample of (S)-3-aminomethyl-7-(3-hydroxy-propoxy)-3H-benzo[c][1,2]oxaborol-1-ol polymorph form HCl4 prepared in Example 2, Method-B, was placed in the pan. The temperature was ramped at a rate of 15° C./minute.
The TGA thermogram of polymorph form HCl3 was acquired using a TA Instruments Q500 Thermogravimetric Analyzer. The sample pan was tared, and sample of (S)-3-aminomethyl-7-(3-hydroxy-propoxy)-3H-benzo[c][1,2]oxaborol-1-ol polymorph form HCl3 prepared as described above was placed in the pan. The temperature was ramped at a rate of 15° C./minute. A weight-loss of 4.7% between 27 and 104° C. was observed and is associated with water-loss due to dehydration.

[3] = Form screen with competitive ripening experiments (Raman/XPRD grouping); conditions: for relative polymorph stability (additional studies incl. single crystal form screen): 48 solvents/solvent mixtures, four crystallization modes, room temperature
Experimental: Alternative methods for preparing polymorph form HCl1, form HCl2, form HCl4, and form HCl5 involve the use of a form screen procedure. The input material for the screen was a nonsolvated form of the hydrochloride salt of (S)-3-aminomethyl-7-(3-hydroxy-propoxy)-3H-benzo[c][1,2]oxaborol-1-ol. […] Screening was conducted in a total of 48 solvents/solvent mixtures using four different crystallization modes listed below. The solvents included water, methanol, 1-propanol, nitromethane, acetonitrile, dimethylsulfoxide, acetone, 2-butanone, dichloromethane, methyl acetate, […], ethyl acetate, chlorobenzene, tetrahydrofuran, 1,4-dioxane, isopropyl ether, toluene, cyclohexane, heptanes, 1-butanol, 2-propanol, trifluoroethanol, dimethyl carbonate, t-butyl methyl ether, isopropyl acetate, ethanol, 1-methoxy-2-propanol, cyclohexanone, dimethyl formamide, 2-methoxyethyl ether, methanol:5 vol % H2O, acetonitrile:5 vol % H2O, acetone:5 vol % H2O, tetrahydrofuran:5 vol % H2O, 2-propanol:5 vol % H2O, methanol:10 vol % H2O, acetonitrile:10 vol % H2O, acetone:10 vol % H2O, tetrahydrofuran:10 vol % H2O, dioxane:10 vol % H2O, 2-propanol:10 vol % H2O, isopropanol+10% dimethylsulfoxide, acetonitrile+10% dimethylsulfoxide, and n-methylpyrrolidone.
Vapor diffusions were also conducted in selected solvents. The four crystallization modes used were: • temperature-cycled ripening of slurries • rapid cooling of room-temperature solutions • room-temperature evaporation of solutions • vapor diffusion of solvent/anti-solvent combinations Characterization:
All samples from the screen were isolated and analyzed by Raman spectroscopy. The samples were then grouped based on Raman spectral match. Representative samples from each of the groups were further analyzed by additional analytical techniques as appropriate (XPRD, DSC, TG-IR, PLM, etc.).
The temperature-cycle, rapid cool, and vapor diffusion samples formed a single group (Group A/Input) based on Raman and XPRD analyses. Most evaporative samples also produced Group A. However, five additional groups (Group B, Group C, Group D, Group E, and Group F) were produced from evaporative and evaporative scale-up experiments based on Raman analyses. These groups were selected for further analysis and/or scale-up.
Group B was an evaporative experiment from nitromethane produced in very low yields (<3 mg). This sample was analyzed by Raman, XPRD, and DSC. Insufficient sample was present for TG-IR (thermogravimetric-infrared spectroscopy). Six scale-up experiments were set up and each produced an amorphous or oily solid. […]
Group C was produced from two evaporative experiments from acetone and 2-butanone in very low yields (<1 mg). This sample was analyzed by Raman, and insufficient sample was present for further analysis. […]

[4] = Differential scanning calorimetry (DSC); conditions: ramp 15° C./minute, loose lid aluminum pan
Experimental: Instrument: TA Instruments Thermal Analysis System, Model DSC Q100
Key Operating Parameters:
Module—DSC Standard Cell FC
Method 1: Equilibrate at 25.00° C.
The DSC thermogram was acquired using a TA Instruments Q100 Differential Scanning calorimeter, as indicated above. A sample of (S)-3-aminomethyl-7-(3-hydroxy-propoxy)-3H-benzo[c][1,2]oxaborol-1-ol polymorph form HCl4 prepared in Example 2, Method B, was accurately weighed out directly into an aluminum DSC pan. The pan was sealed by applying pressure by hand and pushing each part of the pan together (also known as a loose lid configuration). The temperature was ramped at a rate of 15° C./minute. An endothermic transition having an onset of 178.1° C. was measured, and is associated with a decomposition event.

[5] = Storage of Form HCl5 (sealed vial / room temperature)
Experimental: A solution of isopropanol containing 20% water by volume was added to a vial containing approximately 25 mg of polymorph form HCl4. The resulting mixture was stirred as the temperature was cycled between 0 and 40° C. over the course of 48 hours. The solution was isolated by filtration and evaporated to dryness. The freshly isolated product was verified to be Form HCl5.

Cl.NC[C@H]1OB(O)c2c(OCCCO)cccc21 [polymorph form HCl1, (S)-3-aminomethyl-7-(3-hydroxy-propoxy)-3H-benzo[c][1,2]oxaborol-1-ol.HCl]
solid form after storage (XRPD) ([1]; closed Amber bottle, ambient conditions, four months): converted into the HCl4 form during storage

Cl.NC[C@H]1OB(O)c2c(OCCCO)cccc21 [polymorph form HCl3, (S)-3-aminomethyl-7-(3-hydroxy-propoxy)-3H-benzo[c][1,2]oxaborol-1-ol.HCl]
weight-loss (water-loss due to dehydration) ([2]; between 27 and 104° C.): 4.7%

Cl.NC[C@H]1OB(O)c2c(OCCCO)cccc21 [polymorph form HCl4, (S)-3-aminomethyl-7-(3-hydroxy-propoxy)-3H-benzo[c][1,2]oxaborol-1-ol.HCl]
relative polymorph stability ([1]; from conversion during four months storage at ambient conditions): more stable polymorph than HCl1
relative polymorph stability (additional studies incl. single crystal form screen) [3]: most stable polymorph
relative polymorph stability (additional studies incl. single crystal form screen) ([3]; listed as input material): most stable form at room temperature
stability compared to other polymorphs of the HCl salt ([3]; physical and/or chemical stability, general statement): increased stability
onset of endothermic transition associated with a decomposition event [4]: 178.1 °C
stepwise weight-loss (water-loss due to reversible chemical transformation) ([2]; between 162 and 214° C.): 6.4%
temperature beyond which further decomposition is observed [2]: > 214 °C

Cl.NC[C@H]1OB(O)c2c(OCCCO)cccc21 [polymorph form HCl5, (S)-3-aminomethyl-7-(3-hydroxy-propoxy)-3H-benzo[c][1,2]oxaborol-1-ol.HCl]
stability of isolated form (Raman) ([3]; sample from very slow evaporation from acetone with 20% water): unstable and converted to Group E
form after storage ([5]; sealed vial, at least 7 days): conversion to Form HCl3
stability on storage ([5]; stored at room temperature): unstable when stored at room temperature and converts to Form HCl3

From US8461364B2, “Polymorphs of (S)-3-aminomethyl-7-(3-hydroxy-propoxy)-3H-benzo[C][1,2]oxaborol-1-OL” (GlaxoSmithKline LLC, priority 2008, dated 2013)
